These results are taken from patent publication US4942159A, “Cephem compounds, their production and use” (Takeda Chemical Industries, Ltd., priority 1987, dated 1990).

Data set [1] can be described thus: concentration levels in plasma upon rectal administration (suppository), by biological assay. Format: in vivo, rat (Wistar. Conditions: rectal suppository 50 mg/kg, fasted male Wistar rats. The method, then:
Employing the compound (I) prepared in Example 1 mentioned below, the concentration levels in plasma (plasma levels of said compound) upon rectal administration were measured by the procedure described below.
Suppositories containing the product of Example 1 which were prepared according to Example 3 mentioned below were given (50 mg/kg in terms of said product) into the rectum of three male rats No. 1 to 3 (Wistar, body weight of 300 to 400 g) being fasted for 20 hours. The anuses were closed with an adhesive agent, and blood sample were taken from the tail veins after 0.5, 1, 2 and 4 hours to determine quantitatively the plasma levels of the product of Example 1 by means of the biological assay method. As the test microorganisms for the assay, Escherichia coli NIHJ and Proteus rettgeri ATCC 9250 were employed.
A 250 mg portion of finely divided 7β-[2-(5-amino-1,2,4-thiadiazol-3-yl)-(Z)-2-methoxyiminoacetamido]-3- [(6-aminoimidazo[1,2-b]pyridazinium-1-yl)methyl]-3-cephem-4-carboxylate and 4750 mg of Isocacao MO-5 (produced by Kao, Ltd. in Japan) were uniformly sitrred at 40° to 45° C. and cooled to 35° C. under stiring, followed by filling the mixture into a suppository container made of plastics and gradually cooling to obtain a suppository.

Data set [2] deals with Proteus morganii IFO 3168. In words: MIC by agar dilution method (Trypticase soy agar), Proteus morganii IFO 3168. Format: cell-based. Conditions: Morganella morganii, IFO3168, (3) Proteus morganii IFO 3168, 37° C. overnight. The method, then:
(§1) The MIC of each test compound (the compounds obtained in Examples 1 and 2) was determined by the agar dilution method. Thus, 1.0 ml aliquots of serial dilutions of the test compound in water were poured into petri dishes, and 9.0 ml of Trypticase soy agar is added to each dish and stirred. A suspension (about 10^8 CFU/ml) of each test organism is smeared on each agar plate, which is then incubated at 37° C. overnight. The lowest concentration of the test compound which causes a complete growth inhibition of the test organism was determined and taken as the MIC (minimal inhibitory concentration) against the same organism.
(3) Proteus morganii IFO 3168
In general terms: In agar dilution, organisms are placed on agar that contains the substance at set levels.

For data set [3], the system named is Pseudomonas aeruginosa P 9. In words: MIC by agar dilution method (Trypticase soy agar), Pseudomonas aeruginosa P 9. Particulars: P9, (4) Pseudomonas aeruginosa P 9, 37° C. overnight. Type of data set: cell-based. The method, then: as §1
(4) Pseudomonas aeruginosa P 9

Data set [4] concerns Staphylococcus aureus 1840. In words: MIC by agar dilution method (Trypticase soy agar), Staphylococcus aureus 1840. Particulars: (2) Staphylococcus aureus 1840, 37° C. overnight. Type of data set: cell-based. The protocol:
as §1
(2) Staphylococcus aureus 1840

For data set [5], the system named is Staphylococcus aureus 308 A-1. Put plainly: MIC by agar dilution method (Trypticase soy agar), Staphylococcus aureus 308 A-1. Type of data set: cell-based. Particulars: 308A1, 37° C. overnight. The protocol:
as §1
(1) Staphylococcus aureus 308 A-1

The structures appear in SMILES notation. ≈ marks a conversion by molar mass, not a printed value. Where “and” joins values, the source holds several entries; their conditions need not be identical. Identical values can stand only once.

In general, MIC refers to the smallest concentration in the dilution series that meets the test's criterion for growth inhibition. A higher MIC goes with weaker potency. On to `CO/N=C(\C(=O)N[C@@H]1C(=O)N2C(C(=O)[O-])=C(C[n+]3ccn4nc(N)ccc43)CS[C@H]12)c1nsc(N)n1` [Example 1, 7β-[2-(5-amino-1,2,4-thiadiazol-3-yl)-(Z)-2-methoxyiminoacetamide]-3-[(6-aminoimidazo[1,2-b]pyridazinium-1-yl)methyl]-3-cephem-4-carboxylate], for which the “Concentration levels in plasma, 0.5 hr” value in data set [1] (0.5 hr, individual rats: No. 1, No. 2, No. 3, 30 min) is 130 ng/mL and 2400 ng/mL and 5700 ng/mL. The “Concentration levels in plasma, 1 hr” value in data set [1] (1 hr, individual rats: No. 1, No. 2, No. 3, 60 min) was 740 ng/mL and 4200 ng/mL and 5900 ng/mL. In addition, the “Concentration levels in plasma, 2 hr” value in data set [1] (2 hr, individual rats: No. 1, No. 2, No. 3, 120 min) was 1700 ng/mL and 4600 ng/mL and 2700 ng/mL. Further, the “Concentration levels in plasma, 4 hr” value in data set [1] (4 hr, individual rats: b116 = No. 1, b117 = No. 2 (No. 3 not tested), 240 min) was found to be 2800 ng/mL. Further, the concentration at 4 h in data set [1] (rat, plasma, 50 mg/kg, 4 hr, individual rats: b116 = No. 1, b117 = No. 2 (No. 3 not tested)) was found to be 4300 ng/mL. Further, the MIC was determined as 0.2 µg/mL (≈ 0.377 µM) in data set [2], 0.39 µg/mL (≈ 0.735 µM) in data set [3], 0.78 µg/mL (≈ 1.47 µM) in data set [4] and 0.39 µg/mL (≈ 0.735 µM) in data set [5].
For `CCO/N=C(\C(=O)N[C@@H]1C(=O)N2C(C(=O)[O-])=C(C[n+]3ccn4nc(N)ccc43)CS[C@H]12)c1nsc(N)n1` [Example 2, 7β-[2-(5-amino-1,2,4-thiadiazol-3-yl)-(Z)-2-ethoxyiminoacetamido]-3-[(6-aminoimidazo[1,2-b]pyridazinium-1-yl)methyl]-3-cephem-4-carboxylate], the MIC was determined as 0.39 µg/mL (≈ 0.716 µM) in data set [2], 0.78 µg/mL (≈ 1.43 µM) in data set [3], 0.78 µg/mL (≈ 1.43 µM) in data set [4] and 0.39 µg/mL (≈ 0.716 µM) in data set [5].
